For test [1], the system named is MCF7. As to the kind of experiment: Cytotoxicity against human MCF7 cells assessed as cell viability measured after 24 hrs by CCK-8 assay. Type of test: functional, cell-based. The conditions noted are these: MCF7, 24 h.
The subject of test [2] is MDA-MB-231. As to the kind of experiment: Cytotoxicity against human MDA-MB-231 cells assessed as cell viability measured after 24 hrs by CCK-8 assay. Type of test: functional, cell-based. The conditions noted are these: MDA-MB-231, 24 h. (Formazan colour is commonly taken as a measure of viable cells.)
Test [3] has as its system MX1. As to the kind of experiment: Cytotoxicity against human MX1 cells assessed as cell viability measured after 24 hrs by CCK-8 assay. Type of test: functional, cell-based. The conditions noted are these: MX1, 24 h.
Test [4] concerns the target T1, Solute carrier family 2, facilitated glucose transporter member 1 (Homo sapiens) (UniProt P11166).
T1 sequence (whole entry): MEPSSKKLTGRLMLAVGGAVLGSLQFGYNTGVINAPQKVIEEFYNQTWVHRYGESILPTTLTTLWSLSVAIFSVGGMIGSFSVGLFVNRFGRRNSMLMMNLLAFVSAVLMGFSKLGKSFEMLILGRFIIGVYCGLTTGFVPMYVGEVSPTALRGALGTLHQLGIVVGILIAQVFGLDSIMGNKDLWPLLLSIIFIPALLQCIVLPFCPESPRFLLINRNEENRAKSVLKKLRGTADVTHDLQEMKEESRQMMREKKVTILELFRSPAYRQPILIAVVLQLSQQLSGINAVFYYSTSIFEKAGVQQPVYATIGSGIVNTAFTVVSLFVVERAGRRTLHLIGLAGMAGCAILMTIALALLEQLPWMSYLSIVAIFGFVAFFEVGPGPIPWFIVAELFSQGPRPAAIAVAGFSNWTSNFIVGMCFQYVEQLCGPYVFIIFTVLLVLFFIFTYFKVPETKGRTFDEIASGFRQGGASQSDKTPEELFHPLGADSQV
As to the kind of experiment: Binding affinity to GLUT1 (unknown origin) membrane assessed as free energy.

Test [5] addresses T1, Solute carrier family 2, facilitated glucose transporter member 1 (Homo sapiens). As to the kind of experiment: Binding affinity to GLUT1 (unknown origin) assessed as binding free energy.
For test [6], the species on record is Homo sapiens. As to the kind of experiment: Binding affinity to membrane (unknown origin) assessed as binding free energy.
For test [7], the system named is B16-F10. As to the kind of experiment: Cytotoxicity against mouse B16-F10 cells assessed as cell viability after 24 hrs by CCK-8 assay. It is filed as functional, cell-based. The conditions noted are these: B16-F10, 24 h.

*1 amine or outer side, *2 acyl side, *3 side chain or, on linkers, in order; H or OH if unused. Where a SMILES comes first, the peptide text is derived from it. Side-chain parts run from the residue outwards. The star is where a group is joined. NH(CH2)3O(βDGlc) = OC[C@H]1O[C@@H](OCCCN*)[C@H](O)[C@@H](O)[C@@H]1O; Glutaryl = O=C(CCCC(=O)[*:2])[*:1]; Lauroyl = CCCCCCCCCCCC(=O)*

The IC50 is the concentration that gives 50% inhibition.

For `CCCCCCCCCCCCCC(=O)N[C@@H](CCCNC(=N)N)C(=O)N[C@@H](Cc1c[nH]c2ccccc12)C(=O)N[C@@H](CCCCN)C(=O)N[C@H](C(=O)N[C@@H](Cc1ccccc1)C(=O)N[C@@H](CCCCN)C(=O)N[C@@H](CCCCN)C(=O)N[C@H](C(=O)N[C@@H](CCC(=O)O)C(=O)N[C@@H](CCCCN)C(=O)N[C@H](C(=O)NCC(=O)N[C@@H](CCC(N)=O)C(=O)N[C@@H](CC(N)=O)C(=O)N[C@H](C(=O)N[C@@H](CCCNC(=N)N)C(=O)N[C@@H](CC(=O)O)C(=O)NCC(=O)N[C@H](C(=O)N[C@H](C(=O)N[C@@H](CCCCN)C(=O)N[C@@H](C)C(=O)NCC(=O)N1CCC[C@H]1C(=O)N[C@@H](C)C(=O)N[C@H](C(=O)N[C@@H](C)C(=O)N[C@H](C(=O)N[C@H](C(=O)NCC(=O)N[C@@H](CCC(N)=O)C(=O)N[C@@H](C)C(=O)N[C@@H](C)C(=O)N[C@H](C(=O)N[C@H](C(N)=O)[C@@H](C)CC)[C@@H](C)O)C(C)C)C(C)C)C(C)C)C(C)C)[C@@H](C)CC)[C@@H](C)CC)C(C)C)[C@@H](C)CC)[C@@H](C)CC` (HELM PEPTIDE1{[CCCCCCCCCCCCCC(=O)[*:2]].R.W.K.I.F.K.K.I.E.K.V.G.Q.N.I.R.D.G.I.V.K.A.G.P.A.V.A.V.V.G.Q.A.A.T.I.[am]}$$$$V2.0), the half-inhibitory concentration (IC50) in test [1], in test [2] and in test [3] was less than 8 µM in each case.

For `CCCCCCCCCCCC(=O)N[C@@H](CCCCNC(=O)CCCC(=O)NCCCO[C@@H]1O[C@H](CO)[C@@H](O)[C@H](O)[C@H]1O)C(=O)NCC(=O)N[C@@H](Cc1c[nH]c2ccccc12)C(=O)N[C@@H](Cc1ccccc1)C(=O)N[C@@H](CCCNC(=N)N)C(=O)N[C@@H](C)C(=O)N[C@@H](CCSC)C(=O)N[C@@H](CCCNC(=N)N)C(=O)N[C@@H](CO)C(=O)N[C@H](C(=O)N[C@@H](C)C(=O)N[C@@H](CCCNC(=N)N)C(=O)N[C@@H](Cc1ccccc1)C(=O)N[C@H](C(=O)N[C@@H](C)C(=O)N[C@@H](CCCNC(=N)N)C(=O)N[C@@H](CCC(=O)O)C(=O)N[C@@H](CCCNC(=N)N)C(=O)N[C@@H](CC(C)C)C(=O)N[C@@H](CCCNC(=N)N)C(=O)N[C@@H](CCC(=O)O)C(=O)N[C@@H](Cc1cnc[nH]1)C(=O)N[C@@H](CC(C)C)C(N)=O)[C@@H](C)CC)[C@@H](C)CC` (Lauroyl-K([Glutaryl-NH(CH2)3O(βDGlc)])GWFRAMRSIARFIARERLREHL-NH2), the deltaG in test [4] was -73.7 kcal/mol; in test [5] it was -61.7 kcal/mol; in test [6], -61.5 kcal/mol. Besides, the 50% inhibitory concentration (IC50) in test [7] stood at 7.2 µM.

For `CCCCCCCCCCCC(=O)N[C@@H](CCCNC(=N)N)C(=O)NCC(=O)N[C@@H](Cc1c[nH]c2ccccc12)C(=O)N[C@@H](Cc1ccccc1)C(=O)N[C@@H](CCCCNC(=O)CCCC(=O)NCCCO[C@@H]1O[C@H](CO)[C@@H](O)[C@H](O)[C@H]1O)C(=O)N[C@@H](C)C(=O)N[C@@H](CCSC)C(=O)N[C@@H](CCCNC(=N)N)C(=O)N[C@@H](CO)C(=O)N[C@H](C(=O)N[C@@H](C)C(=O)N[C@@H](CCCNC(=N)N)C(=O)N[C@@H](Cc1ccccc1)C(=O)N[C@H](C(=O)N[C@@H](C)C(=O)N[C@@H](CCCNC(=N)N)C(=O)N[C@@H](CCC(=O)O)C(=O)N[C@@H](CCCNC(=N)N)C(=O)N[C@@H](CC(C)C)C(=O)N[C@@H](CCCNC(=N)N)C(=O)N[C@@H](CCC(=O)O)C(=O)N[C@@H](Cc1cnc[nH]1)C(=O)N[C@@H](CC(C)C)C(N)=O)[C@@H](C)CC)[C@@H](C)CC` (Lauroyl-RGWFK([Glutaryl-NH(CH2)3O(βDGlc)])AMRSIARFIARERLREHL-NH2), the deltaG is -64.1 kcal/mol in test [4], -64.3 kcal/mol in test [5] and -63.6 kcal/mol in test [6]. Besides, the IC50 in test [7] turned out to be 5.3 µM.

For `CCCCCCCCCCCC(=O)N[C@@H](CCCNC(=N)N)C(=O)NCC(=O)N[C@@H](Cc1c[nH]c2ccccc12)C(=O)N[C@@H](Cc1ccccc1)C(=O)N[C@@H](CCCNC(=N)N)C(=O)N[C@@H](C)C(=O)N[C@@H](CCSC)C(=O)N[C@@H](CCCCNC(=O)CCCC(=O)NCCCO[C@@H]1O[C@H](CO)[C@@H](O)[C@H](O)[C@H]1O)C(=O)N[C@@H](CO)C(=O)N[C@H](C(=O)N[C@@H](C)C(=O)N[C@@H](CCCNC(=N)N)C(=O)N[C@@H](Cc1ccccc1)C(=O)N[C@H](C(=O)N[C@@H](C)C(=O)N[C@@H](CCCNC(=N)N)C(=O)N[C@@H](CCC(=O)O)C(=O)N[C@@H](CCCNC(=N)N)C(=O)N[C@@H](CC(C)C)C(=O)N[C@@H](CCCNC(=N)N)C(=O)N[C@@H](CCC(=O)O)C(=O)N[C@@H](Cc1cnc[nH]1)C(=O)N[C@@H](CC(C)C)C(N)=O)[C@@H](C)CC)[C@@H](C)CC` (Lauroyl-RGWFRAMK([Glutaryl-NH(CH2)3O(βDGlc)])SIARFIARERLREHL-NH2), the deltaG in test [4] was -87.4 kcal/mol; in test [5] it was -58.5 kcal/mol; in test [6], -27.5 kcal/mol. Besides, the IC50 in test [7] was 4.1 µM.

Turning to `CCCCCCCCCCCC(=O)N[C@@H](CCCNC(=N)N)C(=O)NCC(=O)N[C@@H](Cc1c[nH]c2ccccc12)C(=O)N[C@@H](Cc1ccccc1)C(=O)N[C@@H](CCCNC(=N)N)C(=O)N[C@@H](C)C(=O)N[C@@H](CCSC)C(=O)N[C@@H](CCCNC(=N)N)C(=O)N[C@@H](CO)C(=O)N[C@H](C(=O)N[C@@H](C)C(=O)N[C@@H](CCCNC(=N)N)C(=O)N[C@@H](Cc1ccccc1)C(=O)N[C@H](C(=O)N[C@@H](C)C(=O)N[C@@H](CCCNC(=N)N)C(=O)N[C@@H](CCC(=O)O)C(=O)N[C@@H](CCCCNC(=O)CCCC(=O)NCCCO[C@@H]1O[C@H](CO)[C@@H](O)[C@H](O)[C@H]1O)C(=O)N[C@@H](CC(C)C)C(=O)N[C@@H](CCCNC(=N)N)C(=O)N[C@@H](CCC(=O)O)C(=O)N[C@@H](Cc1cnc[nH]1)C(=O)N[C@@H](CC(C)C)C(N)=O)[C@@H](C)CC)[C@@H](C)CC` (Lauroyl-RGWFRAMRSIARFIAREK([Glutaryl-NH(CH2)3O(βDGlc)])LREHL-NH2), the deltaG in test [4] is -72.8 kcal/mol; in test [5], -60.1 kcal/mol; in test [6] it was -66.8 kcal/mol. In addition, the 50% inhibitory concentration (IC50) in test [7] was found to be 3.3 µM.

Take `CCCCCCCCCCCC(=O)N[C@@H](CCCNC(=N)N)C(=O)NCC(=O)N[C@@H](Cc1c[nH]c2ccccc12)C(=O)N[C@@H](Cc1ccccc1)C(=O)N[C@@H](CCCNC(=N)N)C(=O)N[C@@H](C)C(=O)N[C@@H](CCSC)C(=O)N[C@@H](CCCNC(=N)N)C(=O)N[C@@H](CO)C(=O)N[C@H](C(=O)N[C@@H](C)C(=O)N[C@@H](CCCNC(=N)N)C(=O)N[C@@H](Cc1ccccc1)C(=O)N[C@H](C(=O)N[C@@H](C)C(=O)N[C@@H](CCCNC(=N)N)C(=O)N[C@@H](CCC(=O)O)C(=O)N[C@@H](CCCNC(=N)N)C(=O)N[C@@H](CC(C)C)C(=O)N[C@@H](CCCCNC(=O)CCCC(=O)NCCCO[C@@H]1O[C@H](CO)[C@@H](O)[C@H](O)[C@H]1O)C(=O)N[C@@H](CCC(=O)O)C(=O)N[C@@H](Cc1cnc[nH]1)C(=O)N[C@@H](CC(C)C)C(N)=O)[C@@H](C)CC)[C@@H](C)CC` (Lauroyl-RGWFRAMRSIARFIARERLK([Glutaryl-NH(CH2)3O(βDGlc)])EHL-NH2): the deltaG in test [4] was -123 kcal/mol; in test [5], -77.1 kcal/mol; in test [6], -65.7 kcal/mol. Moreover, in test [7], the IC50 worked out at 3.5 µM.

Turning to `CCCCCCCCCCCC(=O)N[C@@H](CCCNC(=N)N)C(=O)NCC(=O)N[C@@H](Cc1c[nH]c2ccccc12)C(=O)N[C@@H](Cc1ccccc1)C(=O)N[C@@H](CCCNC(=N)N)C(=O)N[C@@H](C)C(=O)N[C@@H](CCSC)C(=O)N[C@@H](CCCNC(=N)N)C(=O)N[C@@H](CO)C(=O)N[C@H](C(=O)N[C@@H](C)C(=O)N[C@@H](CCCNC(=N)N)C(=O)N[C@@H](Cc1ccccc1)C(=O)N[C@@H](CC(C)C)C(=O)N[C@@H](C)C(=O)N[C@@H](CCCCNC(=O)CCCC(=O)NCCCO[C@@H]1O[C@H](CO)[C@@H](O)[C@H](O)[C@H]1O)C(=O)N[C@@H](CCC(=O)O)C(=O)N[C@@H](CCCNC(=N)N)C(=O)N[C@@H](CC(C)C)C(=O)N[C@@H](CCCNC(=N)N)C(=O)N[C@@H](CCC(=O)O)C(=O)N[C@@H](Cc1cnc[nH]1)C(=O)N[C@@H](CC(C)C)C(N)=O)[C@@H](C)CC` (Lauroyl-RGWFRAMRSIARFLAK([Glutaryl-NH(CH2)3O(βDGlc)])ERLREHL-NH2), the deltaG is -79.9 kcal/mol in test [4], -61 kcal/mol in test [5] and -87.9 kcal/mol in test [6]. For the same compound, the IC50 in test [7] came out at 3.8 µM.

The values are drawn from ChEMBL document CHEMBL5036332, “Glucose-Lipopeptide Conjugates Reveal the Role of Glucose Modification Position in Complexation and the Potential of Malignant Melanoma Therapy” (J Med Chem, 2021).
